According to ChEMBL document CHEMBL4610122, “Synthesis and Structure-Activity Relationships of DCLK1 Kinase Inhibitors Based on a 5,11-Dihydro-6H-benzo[e]pyrimido[5,4-b][1,4]diazepin-6-one Scaffold” (J Med Chem, 2020):
Calls of active or inactive are those of the source. No cut-off for these calls is given here.

Assays:
[1] = target: Leucine-rich repeat serine/threonine-protein kinase 2 (Homo sapiens, UniProt Q5S007); test: Inhibition of recombinant human GST-tagged LRRK2 catalytic domain (970 to 2527 residues) expressed in baculovirus expression system using LRRKtide as substrate measured after 1 hr by Alexa fluor-647 ADP tracer-based ADAPTA assay
[2] = target: T1, Serine/threonine-protein kinase DCLK1 (Homo sapiens, UniProt O15075); test: Inhibition of recombinant human N-terminal His6-tagged DCLK1 (G351 to H689 residues) expressed in Escherichia coli BL21 DE3 using 5-FAM-KKLRRTLSVA-COOH as substrate measured after 2 hrs by mobility shift assay
T1 sequence (O15075 whole entry): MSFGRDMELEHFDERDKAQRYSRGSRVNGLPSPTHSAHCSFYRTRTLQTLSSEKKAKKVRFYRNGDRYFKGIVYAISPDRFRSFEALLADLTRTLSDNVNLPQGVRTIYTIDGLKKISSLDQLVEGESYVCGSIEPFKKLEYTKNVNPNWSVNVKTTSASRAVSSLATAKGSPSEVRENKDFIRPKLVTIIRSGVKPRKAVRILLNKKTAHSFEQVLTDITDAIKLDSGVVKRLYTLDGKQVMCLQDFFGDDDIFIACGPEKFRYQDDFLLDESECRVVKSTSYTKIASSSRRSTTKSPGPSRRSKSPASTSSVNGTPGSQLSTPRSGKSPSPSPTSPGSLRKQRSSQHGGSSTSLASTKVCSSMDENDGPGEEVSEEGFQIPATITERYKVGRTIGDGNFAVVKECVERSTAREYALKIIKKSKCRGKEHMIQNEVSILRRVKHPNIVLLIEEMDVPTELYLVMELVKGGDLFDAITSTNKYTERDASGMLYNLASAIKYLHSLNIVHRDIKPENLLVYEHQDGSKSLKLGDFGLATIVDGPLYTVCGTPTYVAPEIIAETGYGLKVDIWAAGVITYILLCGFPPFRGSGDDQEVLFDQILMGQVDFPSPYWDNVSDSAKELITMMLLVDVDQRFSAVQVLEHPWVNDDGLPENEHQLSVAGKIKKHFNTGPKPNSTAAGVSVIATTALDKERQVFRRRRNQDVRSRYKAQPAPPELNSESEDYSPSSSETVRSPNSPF

[3] = target: Mitogen-activated protein kinase 7 (Homo sapiens, UniProt Q13164); test: Inhibition of ERK5 in human HeLa cells assessed as reduction in EGF-induced ERK5 autophosphorylation pretreated for 1 hr followed by EGF stimulation and measured after 17 mins by […]; type: cell-based
[4] = target: Bromodomain-containing protein 4 (Homo sapiens, UniProt O60885); test: Inhibition of BRD4 bromodomain 1 (unknown origin) by AlphaScreen displacement assay
[5] = AUC in mouse; type: ADME, organism-based; conditions: in vivo
[6] = Cytotoxicity against human Panc286 cell organoids assessed as reduction in cell viability at 1 uM measured after 12 days relative to control; type: functional
[7] = Cytotoxicity against human Panc281 cell organoids assessed as reduction in cell viability at 1 uM measured after 12 days relative to control; type: functional
[8] = Clearance in mouse; type: ADME, organism-based; conditions: in vivo
[9] = Half life in mouse; type: ADME, organism-based; conditions: in vivo
Homo sapiens [10] = species: Homo sapiens; test: Cytotoxicity against human Panc286 cell organoids assessed as reduction in cell viability up to 1 uM measured after 4 days; type: functional
Homo sapiens [11] = species: Homo sapiens; test: Cytotoxicity against human Panc281 cell organoids assessed as reduction in cell viability up to 1 uM measured after 4 days; type: functional

Leucine-rich repeat serine/threonine-protein kinase 2, sequence (Q5S007 whole entry, the tested form may be a part): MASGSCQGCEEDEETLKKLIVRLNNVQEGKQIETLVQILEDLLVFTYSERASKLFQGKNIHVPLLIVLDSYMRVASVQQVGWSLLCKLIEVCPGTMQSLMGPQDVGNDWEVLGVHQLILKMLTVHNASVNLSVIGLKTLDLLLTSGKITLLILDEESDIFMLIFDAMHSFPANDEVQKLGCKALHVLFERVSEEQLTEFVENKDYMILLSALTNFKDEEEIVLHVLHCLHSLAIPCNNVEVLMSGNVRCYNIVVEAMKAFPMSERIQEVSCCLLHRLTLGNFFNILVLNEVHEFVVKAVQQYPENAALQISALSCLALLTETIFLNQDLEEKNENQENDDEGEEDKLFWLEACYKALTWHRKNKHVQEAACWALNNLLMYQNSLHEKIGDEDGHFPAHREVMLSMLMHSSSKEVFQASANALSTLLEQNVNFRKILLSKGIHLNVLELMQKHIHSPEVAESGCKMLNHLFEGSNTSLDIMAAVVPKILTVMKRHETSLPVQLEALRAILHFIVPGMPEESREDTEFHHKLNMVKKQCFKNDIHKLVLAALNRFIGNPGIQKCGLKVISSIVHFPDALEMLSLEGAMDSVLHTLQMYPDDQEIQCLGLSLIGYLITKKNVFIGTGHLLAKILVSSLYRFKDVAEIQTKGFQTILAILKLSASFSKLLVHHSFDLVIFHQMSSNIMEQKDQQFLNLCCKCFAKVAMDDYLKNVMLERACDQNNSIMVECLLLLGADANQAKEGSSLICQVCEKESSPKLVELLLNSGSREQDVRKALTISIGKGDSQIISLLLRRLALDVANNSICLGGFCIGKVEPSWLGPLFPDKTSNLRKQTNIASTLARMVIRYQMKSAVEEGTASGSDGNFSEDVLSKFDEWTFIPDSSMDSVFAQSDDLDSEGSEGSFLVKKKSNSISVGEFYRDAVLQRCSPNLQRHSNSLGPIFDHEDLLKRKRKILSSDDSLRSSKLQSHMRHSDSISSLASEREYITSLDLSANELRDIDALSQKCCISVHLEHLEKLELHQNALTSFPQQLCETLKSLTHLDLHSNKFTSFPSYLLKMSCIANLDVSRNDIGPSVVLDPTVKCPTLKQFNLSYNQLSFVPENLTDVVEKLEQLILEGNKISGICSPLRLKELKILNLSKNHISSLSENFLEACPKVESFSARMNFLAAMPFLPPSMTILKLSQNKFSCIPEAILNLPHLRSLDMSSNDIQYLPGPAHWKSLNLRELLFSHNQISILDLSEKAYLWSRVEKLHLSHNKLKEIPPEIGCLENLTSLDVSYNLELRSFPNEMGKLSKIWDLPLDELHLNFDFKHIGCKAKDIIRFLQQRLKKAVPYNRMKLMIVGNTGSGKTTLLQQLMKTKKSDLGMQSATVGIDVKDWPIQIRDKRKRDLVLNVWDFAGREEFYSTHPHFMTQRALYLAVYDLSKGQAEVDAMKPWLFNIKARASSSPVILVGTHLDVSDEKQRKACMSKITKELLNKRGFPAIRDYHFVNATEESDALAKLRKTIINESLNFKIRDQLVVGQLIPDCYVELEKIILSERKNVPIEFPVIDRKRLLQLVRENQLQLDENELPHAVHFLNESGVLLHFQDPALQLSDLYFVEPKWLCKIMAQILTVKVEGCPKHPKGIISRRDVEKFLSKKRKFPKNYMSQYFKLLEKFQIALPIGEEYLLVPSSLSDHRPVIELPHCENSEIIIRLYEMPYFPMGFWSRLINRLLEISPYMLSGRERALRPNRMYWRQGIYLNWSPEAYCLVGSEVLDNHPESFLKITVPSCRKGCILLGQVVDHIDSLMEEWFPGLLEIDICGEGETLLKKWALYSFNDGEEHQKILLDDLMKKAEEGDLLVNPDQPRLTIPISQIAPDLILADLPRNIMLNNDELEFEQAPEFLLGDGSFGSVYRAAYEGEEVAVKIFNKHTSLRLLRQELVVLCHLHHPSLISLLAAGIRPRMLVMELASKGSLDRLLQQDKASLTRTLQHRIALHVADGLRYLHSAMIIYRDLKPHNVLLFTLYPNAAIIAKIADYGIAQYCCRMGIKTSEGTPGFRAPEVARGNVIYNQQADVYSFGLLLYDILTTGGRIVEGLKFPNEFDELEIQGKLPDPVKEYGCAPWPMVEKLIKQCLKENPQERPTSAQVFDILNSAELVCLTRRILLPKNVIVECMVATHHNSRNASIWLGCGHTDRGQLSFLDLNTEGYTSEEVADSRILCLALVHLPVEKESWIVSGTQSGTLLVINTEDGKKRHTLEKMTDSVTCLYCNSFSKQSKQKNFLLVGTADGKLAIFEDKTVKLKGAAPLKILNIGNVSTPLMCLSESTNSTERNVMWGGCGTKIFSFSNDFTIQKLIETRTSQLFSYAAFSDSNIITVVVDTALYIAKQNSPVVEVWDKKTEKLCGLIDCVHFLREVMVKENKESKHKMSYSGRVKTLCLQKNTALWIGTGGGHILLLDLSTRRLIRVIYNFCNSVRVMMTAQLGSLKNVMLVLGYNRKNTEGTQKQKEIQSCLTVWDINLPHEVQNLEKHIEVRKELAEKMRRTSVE
Mitogen-activated protein kinase 7, sequence (Q13164 whole entry): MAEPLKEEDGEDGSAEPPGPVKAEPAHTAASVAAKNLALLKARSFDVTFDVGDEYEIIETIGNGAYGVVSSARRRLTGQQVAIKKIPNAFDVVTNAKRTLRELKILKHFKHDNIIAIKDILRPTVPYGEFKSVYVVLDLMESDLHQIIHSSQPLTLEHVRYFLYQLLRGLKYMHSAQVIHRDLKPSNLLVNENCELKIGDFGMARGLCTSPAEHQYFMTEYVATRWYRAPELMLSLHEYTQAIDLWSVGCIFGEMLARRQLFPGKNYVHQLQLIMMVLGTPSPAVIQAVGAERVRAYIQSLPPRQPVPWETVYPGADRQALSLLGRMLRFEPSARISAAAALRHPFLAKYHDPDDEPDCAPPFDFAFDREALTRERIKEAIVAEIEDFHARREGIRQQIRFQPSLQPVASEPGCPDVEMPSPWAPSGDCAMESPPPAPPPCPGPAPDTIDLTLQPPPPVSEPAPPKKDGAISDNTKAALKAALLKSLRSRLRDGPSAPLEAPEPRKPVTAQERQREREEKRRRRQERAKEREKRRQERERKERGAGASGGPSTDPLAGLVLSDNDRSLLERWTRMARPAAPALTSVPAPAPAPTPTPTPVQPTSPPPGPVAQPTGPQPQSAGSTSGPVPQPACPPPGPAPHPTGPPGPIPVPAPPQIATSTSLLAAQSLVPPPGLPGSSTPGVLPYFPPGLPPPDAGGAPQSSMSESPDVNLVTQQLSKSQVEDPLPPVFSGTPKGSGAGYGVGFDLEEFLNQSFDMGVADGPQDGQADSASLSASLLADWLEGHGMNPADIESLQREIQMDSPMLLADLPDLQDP

SMILES	IC50 [1] [nM]	IC50 [2] [nM]	IC50 [4] [nM]	other results
CN1C(=O)c2ccccc2N(C)c2nc(Nc3ccc(N4CCC(O)CC4)cc3)ncc21	30	109		
COc1cc(N2CCOCC2)ccc1Nc1ncc2c(n1)N(C)c1ccccc1C(=O)N2C	31	11		
Cc1cc(N2CCC(O)CC2)ccc1Nc1ncc2c(n1)N(C)c1ccccc1C(=O)N2C	35	37		
CCN1C(=O)c2ccccc2N(C)c2nc(Nc3ccc(C(=O)NC4CCN(C)CC4)cc3OC)ncc21	14	2	520	IC50 [3]: 482 nM
COc1cc(N2CCN(C)CC2)ccc1Nc1ncc2c(n1)N(C)c1ccccc1C(=O)N2	70	> 1000	> 10000	IC50 [3]: 1200 nM
CN1C(=O)c2ccccc2N(C)c2nc(Nc3ccc(NS(C)(=O)=O)cc3)ncc21		2		
COc1cc(NS(C)(=O)=O)ccc1Nc1ncc2c(n1)N(C)c1ccccc1C(=O)N2C	5.9 to 6	3 to 16	125	IC50 [3]: 276 nM
CCOc1cc(N2CCC(O)CC2)ccc1Nc1ncc2c(n1)N(C)c1ccccc1C(=O)N2C	46	716		
CCN1C(=O)c2ccccc2N(C)c2nc(Nc3ccc(NS(C)(=O)=O)cc3OC)ncc21	23	36	4600	
CCC(C)N1c2ccccc2C(=O)N(C)c2cnc(Nc3ccc(N4CCN(C)CC4)cc3OC)nc21 (stereo not given)	743	32		IC50 [3]: 222 nM
COc1cc(N2CCN(C)CC2)ccc1Nc1ncc2c(n1)N(C1CCC1)c1ccccc1C(=O)N2C	97	14		IC50 [3]: 79 nM
COc1cc(N2CCN(C)CC2)ccc1Nc1ncc2c(n1)N(C)c1ccccc1C(=O)N2CC(F)(F)F	7000	17	> 10000	IC50 ([3]; hela): 3350 nM; AUC [5]: 1270 ng·h/mL; Activity [6]: >=50 - 90%; Activity [7]: >=50 - 90%; clearance [8]: 26.3 mL/min/kg; t1/2 [9]: 2.09 h; Activity (Homo sapiens [10]): inactive; Activity (Homo sapiens [11]): inactive
COc1cc(N2CCNCC2)ccc1Nc1ncc2c(n1)N(C)c1ccccc1C(=O)N2C	23	52		
COc1cc(N2CCN(C)CC2)ccc1Nc1ncc2c(n1)N(C)c1ccccc1C(=O)N2C	29	11 to 16	888	
COc1cc(N2CCN(C3CCN(C)CC3)CC2)ccc1Nc1ncc2c(n1)N(C)c1ccccc1C(=O)N2C	16	104		
COc1cc(C(=O)NC2CCN(C)CC2)ccc1Nc1ncc2c(n1)N(C)c1ccccc1C(=O)N2CC(F)(F)F	378	10	1570	
CCOc1cc(C(=O)N2CCC(N3CCN(C)CC3)CC2)ccc1Nc1ncc2c(n1)N(C1CCCC1)c1ccccc1C(=O)N2C	171	22		
COc1cc(N2CCN(C)CC2)ccc1Nc1ncc2c(n1)N(Cc1ccccc1)c1ccccc1C(=O)N2C	141	4		
COc1cc(N2CCN(C)CC2)ccc1Nc1ncc2c(n1)N(C)c1ccc(Cl)cc1C(=O)N2C	1330	> 2000		

SMILES	IC50 [1] [nM]	IC50 [2] [nM]	IC50 [4] [nM]	other results
COc1cc(N2CCN(C)CC2)ccc1Nc1ncc2c(n1)N(C(C)C)c1ccccc1C(=O)N2C	289	71		
COc1cc(N2CCN(C)CC2)ccc1Nc1ncc2c(n1)N(C)c1ccccc1C(=O)N2C(C)C	1900	411	1200	
CC(C)Oc1cc(N2CCN(C)CC2)ccc1Nc1ncc2c(n1)N(C)c1ccccc1C(=O)N2CC(F)(F)F		214		
COc1cc(C(=O)N2CCN(C3CCN(C)CC3)CC2)ccc1Nc1ncc2c(n1)N(C)c1ccccc1C(=O)N2C	5			
CN1C(=O)c2ccccc2N(C)c2nc(Nc3ccc(S(N)(=O)=O)cc3)ncc21	7	187		
COc1cc(N2CCN(C)CC2)ccc1Nc1ncc2c(n1)N(C)c1ccc(C)cc1C(=O)N2C	928	> 2000		
COc1cc(N2CCN(C)CC2)ccc1Nc1ncc2c(n1)N(C)c1cc(Cl)ccc1C(=O)N2C	3740	> 2000		
COc1cc(N2CCN(C)CC2)ccc1Nc1ncc2c(n1)N(C1CCCC1)c1ccccc1C(=O)N2C	421	26		
CCN1c2ccccc2C(=O)N(C)c2cnc(Nc3ccc(N4CCN(C)CC4)cc3OC)nc21	57	154		
COc1cc(N2CCC(O)CC2)ccc1Nc1ncc2c(n1)N(C)c1ccccc1C(=O)N2C	14.1	97		
COc1cc(C(=O)NC2CCN(C)CC2)ccc1Nc1ncc2c(n1)N(C)c1ccccc1C(=O)N2C	8.2 to 18	1 to 4	4170	
CC(C)Oc1cc(N2CCC(O)CC2)ccc1Nc1ncc2c(n1)N(C)c1ccccc1C(=O)N2C	160	510		
COc1cc(N2CCN(C)CC2)ccc1Nc1nc(C)c2c(n1)N(C)c1ccccc1C(=O)N2C	501	> 2000		IC50 [3]: > 10000 nM
COc1cc(N2CCN(C)CC2)ccc1Nc1ncc2c(n1)N(C)c1ccc(C)cc1C(=O)N2CC(F)(F)F		> 5000		
CCN1C(=O)c2ccccc2N(C)c2nc(Nc3ccc(N4CCN(C)CC4)cc3OC)ncc21	62	3	830	IC50 [3]: 1200 nM
COc1cc(NS(C)(=O)=O)ccc1Nc1ncc2c(n1)N(C)c1ccccc1C(=O)N2C(C)C	683	> 1000	7490	
CN1C(=O)c2ccccc2N(C)c2nc(Nc3cccc(S(N)(=O)=O)c3)ncc21	6.1	111		
COc1cc(C(=O)NC2CCN(C)CC2)ccc1Nc1ncc2c(n1)N(C)c1ccccc1C(=O)N2C(C)C	331	126	2380	
COc1cc(NS(C)(=O)=O)ccc1Nc1ncc2c(n1)N(C)c1ccccc1C(=O)N2CC(F)(F)F	8890	80	> 10000	
